# In patent publication US11014898B1, “Benzothiazepine compounds and their use as bile acid modulators” (Albireo AB, priority 2020, dated 2021):
# Assays:
# Human IBAT = target: T1, Human IBAT (Homo sapiens, UniProt Q12908); experiment: IBAT (h) assay: 3H-taurocholic acid uptake in human IBAT-overexpressing cells; assay type: cell-based; conditions: 0.25 μM 3H-taurocholic acid and 5 μM cold taurocholic acid, 20 minutes, read-out: hIBAT IC50
# T1 construct: expressed in transfected cells; cells kept under Puromycin selection
# T1 sequence (Q12908 1-348): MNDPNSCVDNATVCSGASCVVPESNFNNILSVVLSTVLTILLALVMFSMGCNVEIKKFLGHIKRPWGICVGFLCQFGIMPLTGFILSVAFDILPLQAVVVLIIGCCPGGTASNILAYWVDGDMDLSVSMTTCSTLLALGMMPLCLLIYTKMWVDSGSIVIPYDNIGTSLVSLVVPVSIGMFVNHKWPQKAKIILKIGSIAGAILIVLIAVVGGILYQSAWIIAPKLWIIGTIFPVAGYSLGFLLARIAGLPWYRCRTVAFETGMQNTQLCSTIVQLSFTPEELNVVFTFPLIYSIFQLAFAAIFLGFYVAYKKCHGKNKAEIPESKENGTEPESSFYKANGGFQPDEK
# Description: 10,000 cells (Human or Mouse IBAT-overexpressing cells) were seeded in 96-wells plate (Corning CLS3809) in 200 μL MEM-alpha medium (Gibco 12571-063) supplemented with 10% FBS (Gibco 10438026) containing Puromycin (Gibco A1113803) (10 μg/mL) and incubated at 37° C. in 5% CO2 for 48 hours. After incubation, media was decanted from the wells and cells were washed two times with 300 μL of basal MEM-alpha medium (FBS-free). After decanting basal MEM-alpha medium each time, plates were tapped against paper towel to ensure maximum removal of residual media. Test inhibitor dilutions (highest test concentration being 10 μM, 3-fold serial dilution, 10 points) prepared in DMSO (Sigma D2650) were added in incubation mix (maintaining 0.2% final DMSO concentration) containing 0.25 μM 3H-taurocholic acid (ARC ART-1368) and 5 μM of cold taurocholic acid (Sigma T4009). 50 μL of incubation mix containing test inhibitors was then added to the wells (in duplicate) and the plates were incubated for 20 minutes in a CO2 incubator at 37° C. After incubation, the reaction was stopped by keeping the plates on ice water mix for 2-3 minutes and then the incubation mix was aspirated completely from the wells. The wells were washed two times with 250 μL of chilled unlabelled 1 mM taurocholic acid dissolved in HEPES (Gibco 15630080)-buffered (10 mM) HBSS (Gibco 14175079) (pH 7.4). The plates were tapped against a paper towel after every wash to ensure maximum removal of blocking buffer.
# (§1) 100 μL of MicroScint-20 (PerkinElmer 6013621) was added to the wells and kept overnight at room temperature before reading the plates in TopCount NXT™ Microplate Scintillation and Luminescence Counter from PerkinElmer under 3H Test protocol (set at 120 seconds reading time per well).
# (§2) All test compounds were provided in powder form at room temperature. 10 mM DMSO stocks of the test compounds were prepared, aliquoted and stored at −20° C. From the 10 mM DMSO stock of the compounds, a 3-fold serial dilution in DMSO was prepared to get a total of 10 dilutions of the test compounds. 0.5 μL of this dilution in DMSO was added to 250 μL of FBS-free basal media containing 3H-taurocholic acid and cold taurocholic acid to prepare the incubation mixture.
# [1] = Bidirectional permeability assay (Caco-2 cells); assay type: in vitro ADME; conditions: human, Caco-2, pH 7.4, 10 μM in FaSSIF buffer, 120 minutes at 37° C.; for Papp A→B at 120 min, 10 μM: absorptive direction (A2B); for Papp B→A at 120 min, 10 μM: secretory direction (B2A)
# Description: Caco-2 cells (Evotec) were seeded at a density of 70,000 cells/well in Millicell® 24-well cell culture insert plates and maintained in an incubator (37° C., 5% CO2, 95% RH) for 21 days with media change on alternate days.
# Stock solutions (10 mM) of the test compounds, atenolol (low permeability marker), propranolol (high permeability marker) and digoxin (substrate for P-gp transport pathway) were prepared in dimethylsulfoxide (DMSO). An intermediate stock solution (1 mM) was prepared by diluting 10 μL of 10 mM master stock solution with 90 μL of neat DMSO. A working stock solution (10 μM) was prepared by diluting 50 μL of 1 mM with 4950 μL of FaSSIF buffer. Post addition of compounds to the FaSSIF, samples were subjected to sonication for 2 hours, and centrifuged at 4000 RPM for 30 minutes at 37° C. The 4 mL of resultant supernatant was directly used in the assay. The final DMSO concentration in the transport experiments was 1%.
# On the day of assay, Caco-2 monolayers were washed twice with transport buffer (HBSS, pH 7.4) and pre-incubated for 30 min (37° C., 5% CO2, 95% RH) in an incubator. The electrical resistance of the monolayers was measured with a Millicell®-ERS system. Monolayers with trans-epithelial electrical resistance (TEER) values greater than 350 ohm·cm^2 were selected for the assay.
# The assay was conducted in absorptive direction (A2B) and secretory (B2A) directions. Transport experiments were initiated by addition of transport assay buffer (FaSSIF buffer prepared in HBSS) consisting of compounds to the donor compartment (apical chamber A-B; basolateral chamber B-A) in duplicate (n=2) wells. Drug free HBSS buffer (pH 7.4) containing 1% bovine serum albumin (BSA) was introduced to the receiver (A-B-basolateral; B-A-Apical) compartments. The volumes of apical and basolateral compartments were 0.4 and 0.8 mL, respectively. After adding dosing solution, plates were incubated in an incubator for 120 minutes at 37° C. After 120 minutes, donor and receiver samples were collected and matrix matched (1:1, 30 μL study sample+30 μL blank buffer) with the opposite buffer. Dosing samples matrix matched (1:1, 30 μL study sample+30 μL blank buffer) with the opposite buffer. Samples were processed by adding acetonitrile containing internal standard (60 μL study sample+200 μL acetonitrile containing internal standard-Tolbutamide, 500 ng/mL). Samples were vortexed and centrifuged at 4000 rpm for 10 minutes. The obtained supernatant (100 μL) was diluted with 100 μL of water and transferred to fresh 96 well plates. The concentration of compounds in the samples was analyzed by liquid chromatography tandem mass spectrometry (LC-MS/MS) method using discovery grade bio-analytical method, as applicable.
# The mean apparent permeability (Papp×10^−6 cm/sec) of the test compounds, atenolol, propranolol and digoxin were calculated as follows:
# where dq/dt=rate of transport (rate of transport of compound in the receiver compartment), C0=initial concentration in the donor compartment, A=surface area of the effective filter membrane.
# Human LBAT = target: T2, Human LBAT (Homo sapiens, UniProt Q14973); experiment: LBAT (h) assay: 3H-taurocholic acid uptake in human LBAT-overexpressing cells; assay type: cell-based; conditions: 0.3 μM 3H-taurocholic acid and 7.5 μM cold taurocholic acid, 20 minutes, read-out: hLBAT IC50
# T2 construct: expressed in transfected cells; cells kept under Geneticin selection
# T2 sequence (Q14973 1-349): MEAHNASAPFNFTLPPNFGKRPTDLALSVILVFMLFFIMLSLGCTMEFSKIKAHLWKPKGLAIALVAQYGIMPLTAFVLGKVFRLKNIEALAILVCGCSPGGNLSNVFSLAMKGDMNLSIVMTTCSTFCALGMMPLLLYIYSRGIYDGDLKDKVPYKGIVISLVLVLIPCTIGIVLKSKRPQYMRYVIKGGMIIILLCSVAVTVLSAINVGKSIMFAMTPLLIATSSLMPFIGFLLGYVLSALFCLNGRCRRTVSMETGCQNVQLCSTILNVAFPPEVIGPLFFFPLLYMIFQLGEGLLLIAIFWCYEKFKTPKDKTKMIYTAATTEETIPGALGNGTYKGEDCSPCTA
# Description: 20,000 cells (Human or Mouse LBAT-overexpressing cells) were seeded in 96-wells plate (Corning CLS3809) in 100 μL MEM-alpha medium (Gibco 12571-063) supplemented with 10% FBS (Gibco 10438026) containing Geneticin (Gibco 10131-027) (1 mg/mL) and incubated at 37° C. in 5% CO2 for 24 hours. After incubation, media was decanted from the wells and cells were washed two times with 300 μL of basal MEM-alpha medium (FBS-free). After decanting basal MEM-alpha medium each time, plates were tapped against paper towel to ensure maximum removal of residual media. For human LBAT, incubation mix was prepared by adding test inhibitor dilutions (3-fold serial dilution in DMSO (Sigma D2650), 10 points) in MEM-alpha (without FBS) containing 0.3 μM 3H-taurocholic acid (ARC ART-1368) and 7.5 μM cold taurocholic acid (Sigma T4009) (maintaining 0.2% final DMSO concentration). For mouse LBAT, incubation mix was prepared by adding test inhibitor dilutions (3-fold serial dilution in DMSO, 10 points) in MEM-alpha (without FBS) containing 0.3 μM 3H-taurocholic acid and 25 μM cold taurocholic acid maintaining 0.2% final DMSO concentration).
# 50 μL of incubation mix containing test inhibitors was then added to the wells (in duplicate) and the plates were incubated for 20 minutes in a CO2 incubator at 37° C. After incubation, the reaction was stopped by keeping the plates on ice water mix for 2-3 minutes and then the incubation mix was aspirated completely from the wells. The wells were washed two times with 250 μL of chilled unlabelled 1 mM taurocholic acid dissolved in HEPES (Gibco 15630080)-buffered (10 mM) HBSS (Gibco 14175079) (pH 7.4). The plates were tapped against a paper towel after every wash to ensure maximum removal of blocking buffer.
# as §1, with “well, with normal plate orientation).” for “well).”
# as §2
IC50 (Human IBAT),"Papp A→B at 120 min, 10 μM [1]","Papp B→A at 120 min, 10 μM [1]",IC50 (Human LBAT),Compound
2.4 nM,8.7 ×10⁻⁶ cm/s,12.9 ×10⁻⁶ cm/s,,"CCCCC1(CC)CN(c2ccc(F)cc2)c2cc(SC)c(OCC(=O)O)cc2S(=O)(=O)C1 (single isomer, unassigned) [Example 15, 2-((3-butyl-3-ethyl-5-(4-fluorophenyl)-7-(methylthio)-1,1-dioxido-2,3,4,5-tetrahydro-1,5-benzothiazepin-8-yl)oxy)acetic acid]"
14 nM,,,751 nM,"CCCCC1(CC)CN(c2ccc(O)cc2)c2cc(SC)c(OCC(=O)O)cc2S(=O)(=O)C1 (single isomer, unassigned) [Example 20, 2-((3-butyl-3-ethyl-5-(4-hydroxyphenyl)-7-(methylthio)-1,1-dioxido-2,3,4,5-tetrahydro-1,5-benzothiazepin-8-yl)oxy)acetic Acid]"
24 nM,3.2 ×10⁻⁶ cm/s,9.4 ×10⁻⁶ cm/s,,"CCCCC1(CCCC)CN(c2ccccc2)c2cc(N(C)C)c(OCC(=O)O)cc2S(=O)(=O)C1 [Example 1, 2-((3,3-dibutyl-7-(dimethylamino)-1,1-dioxido-5-phenyl-2,3,4,5-tetrahydro-1,5-benzothiazepin-8-yl)oxy)acetic Acid]"
38 nM,4.3 ×10⁻⁶ cm/s,6.6 ×10⁻⁶ cm/s,,"CCCCC1(CCCC)CN(c2ccc(OC)cc2)c2cc(SC)c(OCC(=O)O)cc2S(=O)(=O)C1 [Example 2, 2-((3,3-dibutyl-5-(4-methoxyphenyl)-7-(methylthio)-1,1-dioxido-2,3,4,5-tetrahydro-1,5-benzothiazepin-8-yl)oxy)acetic Acid]"
59 nM,,,3610 nM,"CCCCC1(CCCC)CN(c2ccc(C(F)(F)F)cc2)c2cc(SC)c(OCC(=O)O)cc2S(=O)(=O)C1 [Example 6, 2-((3,3-dibutyl-7-(methylthio)-1,1-dioxido-5-(4-(trifluoromethyl)phenyl)-2,3,4,5-tetrahydro-1,5-benzothiazepin-8-yl)oxy)acetic Acid]"
179 nM,,,1070 nM,"CCCCC1(CCCC)CN(c2ccccc2)c2cc(F)c(OCC(=O)O)cc2S(=O)(=O)C1 [Example 10, 2-((3,3-dibutyl-7-fluoro-1,1-dioxido-5-phenyl-2,3,4,5-tetrahydro-1,5-benzothiazepin-8-yl)oxy)acetic Acid]"
281 nM,,,2530 nM,"CCCCC1(CCCC)CN(c2ccccc2)c2cc(C#N)c(OCC(=O)O)cc2S(=O)(=O)C1 [Example 11, 2-((3,3-dibutyl-7-cyano-1,1-dioxido-5-phenyl-2,3,4,5-tetrahydro-1,5-benzothiazepin-8-yl)oxy)acetic Acid]"
350 nM,,,473 nM,"CCCCC1(CC)CN(c2ccccc2)c2cc(F)c(OCC(=O)O)cc2S(=O)(=O)C1 (stereo not drawn) [Example 12, 2-((3-butyl-3-ethyl-7-fluoro-1,1-dioxido-5-phenyl-2,3,4,5-tetrahydro-1,5-benzothiazepin-8-yl)oxy)acetic Acid]"
268 nM,,,1620 nM,"CCCCC1(CCCC)CN(c2ccccc2)c2cc(Cl)c(OCC(=O)O)cc2S(=O)(=O)C1 [Example 13, 2-((3,3-dibutyl-7-chloro-1,1-dioxido-5-phenyl-2,3,4,5-tetrahydro-1,5-benzothiazepin-8-yl)oxy)acetic Acid]"
